The text below walks through data of ChEMBL document CHEMBL4266008, “Exploring Halogen Bonds in 5-Hydroxytryptamine 2B Receptor-Ligand Interactions” (ACS Med Chem Lett, 2018).

Structures are written as SMILES. The source made the active and inactive calls. The calls are words filed in the database; no cut-off is given here.

The term Ki denotes a measure of affinity in units of concentration, obtained from inhibition or displacement. Read a low Ki as tighter binding. In general, IC50 refers to the midpoint of a concentration-inhibition curve. One may read the inhibition as how much of the control response was suppressed.

Assay [1] has as its target T1, 5-hydroxytryptamine receptor 2B (Homo sapiens, UniProt P41595). Briefly: Displacement of [3H]LSD from 5HT2B (unknown origin) after 1.5 hrs by microbeta scintillation counting method. (Loss of bound radioactivity is the signal in a displacement assay; it reports binding, not function.)
For assay [2], the target named is T1, 5-hydroxytryptamine receptor 2B. In words: Antagonist activity at 5HT2B (unknown origin) expressed in CHOK1 cells assessed as inhibition of agonist-induced effect preincubated for 60 mins at 37 degC followed by 15 mins incubation at room temperature and subsequent agonist addition measured for 100 secs by fluorescence assay. The class given is functional, cell-based.

The subject of assay [3] is Mus musculus. In words: Protection against castor oil-induced diarrhea in C57BL/6 mouse assessed as improvement in stool consistency at 10 mg/kg, po pretreated for 15 mins followed by castor oil addition measured over 4 hrs. The class given is functional, organism-based.
In assay [4] the test system is Mus musculus. In words: Protection against castor oil-induced diarrhea in C57BL/6 mouse assessed as improvement in fecal output at 10 mg/kg, po pretreated for 15 mins followed by castor oil addition measured over 4 hrs. The format is functional, organism-based.
The target of assay [5] is T1, 5-hydroxytryptamine receptor 2B. In words: Antagonist activity at 5HT2B (unknown origin) expressed in CHOK1 cells assessed as inhibition of agonist-induced effect at 10 uM preincubated for 60 mins at 37 degC followed by 15 mins incubation at room temperature and subsequent agonist addition measured for 100 secs by fluorescence assay relative to control. The class given is functional, cell-based.

In assay [6] the test system is Mus musculus. Briefly: Protection against castor oil-induced diarrhea in C57BL/6 mouse assessed as improvement in body weight at 10 mg/kg, po pretreated for 15 mins followed by castor oil addition measured over 4 hrs. The format is functional, organism-based.

T1 sequence (P41595 whole entry): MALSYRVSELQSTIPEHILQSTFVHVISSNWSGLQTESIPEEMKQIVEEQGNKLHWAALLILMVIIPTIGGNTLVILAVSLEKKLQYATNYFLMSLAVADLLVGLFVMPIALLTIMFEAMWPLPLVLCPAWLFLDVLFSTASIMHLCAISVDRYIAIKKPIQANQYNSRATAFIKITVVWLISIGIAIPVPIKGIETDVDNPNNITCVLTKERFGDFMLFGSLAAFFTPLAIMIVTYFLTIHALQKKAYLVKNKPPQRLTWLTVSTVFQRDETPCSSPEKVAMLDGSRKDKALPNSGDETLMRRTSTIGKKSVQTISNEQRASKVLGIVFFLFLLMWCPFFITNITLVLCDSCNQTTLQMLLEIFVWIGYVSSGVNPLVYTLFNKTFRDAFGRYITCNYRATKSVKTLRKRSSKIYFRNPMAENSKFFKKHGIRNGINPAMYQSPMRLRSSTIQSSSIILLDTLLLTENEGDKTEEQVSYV

The compound `Cc1cccc(NC2=NC(N)=NC3(CCCCC3)N2)c1` came in with an inhibition constant (Ki) in assay [1] of 0.0198 µM. Also, the IC50 in assay [2] stood at 0.459 µM.

For `CN(C)CC/C=C1\c2ccccc2COc2ccccc21` [E-DOXEPIN], the result in assay [3] and in assay [4] was Active. In assay [1], `NC1=NC2(CCCCC2)NC(Nc2cccc(O)c2)=N1` yielded an inhibition constant (Ki) of 0.313 µM. Further, the inhibition in assay [5] was < 50%. As for `CN(C)CC/C=C1\c2ccc(Br)cc2COc2ccccc21`, in assay [1], the affinity, expressed as Ki, was 0.0025 µM. Further, the result in assay [6], in assay [3] and in assay [4] was Active. With `CN(C)CC/C=C1\c2ccc(Cl)cc2COc2ccccc21`, the Ki in assay [1] is 0.003 µM.

In assay [1], `CN(C)CC/C=C1\c2ccc(F)cc2COc2ccccc21` had an inhibition constant (Ki) of 0.0166 µM. As to `NC1=NC2(CCCCC2)NC(Nc2cc(F)cc(Br)c2)=N1`, the IC50 in assay [2] was 0.0749 µM.

Consider `NC1=NC2(CCCCC2)NC(Nc2cc(Br)cc(Br)c2)=N1`, for which the IC50 in assay [2] was found to be 0.215 µM. In turn, `NC1=NC2(CCCCC2)NC(Nc2cccc(I)c2)=N1` gave an inhibitory constant (Ki) in assay [1] of 0.0017 µM. The concentration for half-maximal inhibition (IC50) in assay [2] worked out at 0.0233 µM. The like results for `NC1=NC2(CCCCC2)NC(Nc2cccc(Br)c2)=N1` were, in that order, 0.0058 µM and 0.0354 µM. In turn, `NC1=NC2(CCCCC2)NC(Nc2cccc(Cl)c2)=N1` gave an inhibition constant (Ki) in assay [1] of 0.0063 µM. Further, in assay [2], the IC50 turned out to be 0.0469 µM. In the case of `NC1=NC2(CCCCC2)NC(Nc2ccccc2)=N1`, the Ki in assay [1] worked out at 0.151 µM. Besides, in assay [2], the 50% inhibitory concentration (IC50) worked out at 1.64 µM. For `NC1=NC2(CCCCC2)NC(Nc2cccc(F)c2)=N1` the same measures were 0.0533 µM and 0.403 µM. Take `CCOC(=O)c1cc(Br)cc(NC2=NC(N)=NC3(CCCCC3)N2)c1`: in assay [2], the IC50 was 1.96 µM.
